Experimental findings from US20140235585A1, “SUBSTITUTED DIARYL DERIVATIVES AS SPHINGOSINE RECEPTOR MODULATORS” (ALLERGAN, INC., priority 2013, published 2014) are described below.

The target of this assay is T1, human S1P1 receptor (Homo sapiens, UniProt P21453).
T1 construct: expressed in transfected cells; membranes from cells stably expressing the S1P1 receptor
In words: GTP γ35S binding assay for S1P1 activity. It is filed as biochemical. The conditions noted are these: Activity potency: S1P1 receptor from GTP γ35S; membranes of cells stably expressing the S1P1 receptor; agonist-induced binding. The procedure: Compounds were tested for S1P1 activity using the GTP γ^35S binding assay. These compounds may be assessed for their ability to activate or block activation of the human S1P1 receptor in cells stably expressing the S1P1 receptor. GTP γ^35S binding was measured in the medium containing (mM) HEPES 25, pH 7.4, MgCl2 10, NaCl 100, dithitothreitol 0.5, digitonin 0.003%, 0.2 nM GTP γ^35S, and 5 μg membrane protein in a volume of 150 μl. Test compounds were included in the concentration range from 0.08 to 5,000 nM unless indicated otherwise. Membranes were incubated with 100 μM 5′-adenylylimmidodiphosphate for 30 min, and subsequently with 10 μM GDP for 10 min on ice. Drug solutions and membrane were mixed, and then reactions were initiated by adding GTP γ^35S and continued for 30 min at 25° C. Reaction mixtures were filtered over Whatman GF/B filters under vacuum, and washed three times with 3 mL of ice-cold buffer (HEPES 25, pH7.4, MgCl2 10 and NaCl 100). Filters were dried and mixed with scintillant, and counted for ^35S activity using a β-counter. Agonist-induced GTP γ^35S binding was obtained by subtracting that in the absence of agonist. Binding data were analyzed using a non-linear regression method. In case of antagonist assay, the reaction mixture contained 10 nM S1P in the presence of test antagonist at concentrations ranging from 0.08 to 5000 nM.

T1 sequence (P21453 whole entry): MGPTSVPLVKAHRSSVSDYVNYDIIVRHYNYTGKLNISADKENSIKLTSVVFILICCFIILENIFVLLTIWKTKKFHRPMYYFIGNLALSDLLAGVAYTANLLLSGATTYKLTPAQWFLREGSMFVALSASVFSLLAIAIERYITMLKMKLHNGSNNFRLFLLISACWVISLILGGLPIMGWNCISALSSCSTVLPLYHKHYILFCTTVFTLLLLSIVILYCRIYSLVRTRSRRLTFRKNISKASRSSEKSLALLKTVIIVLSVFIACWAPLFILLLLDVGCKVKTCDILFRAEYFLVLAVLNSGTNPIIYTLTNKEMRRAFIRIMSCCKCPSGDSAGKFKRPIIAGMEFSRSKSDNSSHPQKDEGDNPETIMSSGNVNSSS

For the compound `O=P(O)(O)CCCNCc1ccc(CCSc2ncc(-c3ccccc3)n2-c2ccccc2)cc1` [Compound 3, {3-[(4-{2-[(1,5-diphenyl-1H-imidazol-2-yl)thio]ethyl}benzyl)amino]propyl}phosphonic acid], the EC50 – broadly, the midpoint of the concentration-response curve – was 86 nM.
As to `O=C(O)CCNCc1ccc(CC/N=c2\scc(-c3ccccc3)n2-c2ccccc2)cc1` [Compound 2, 3-{[4-(2-{[(2Z)-3,4-diphenyl-1,3-thiazol-2(3H)-ylidene]amino}ethyl)benzyl]amino}propanoic acid], the EC50 is 658 nM. This EC50 is about 7.7-fold higher than that of the compound before.
For `O=P(O)(O)CCCNCc1ccc(CC/N=c2\scc(-c3ccccc3)n2-c2ccccc2)cc1` [Compound 1, (3-{[4-(2-{[(2Z)-3,4-diphenyl-1,3-thiazol-2(3H)-ylidene]amino}ethyl)benzyl]amino}propyl)phosphonic acid], the EC50 is 31 nM.
